Among the test systems are OVCAR-4; SK-MEL-2; M19-MEL; COLO 205; MDA-MB-435; SF-539; SN12C; SR; IGROV-1; OVCAR-5; DLD-1; M14; EKVX; NCI-H226; HCC 2998; NCI/ADR-RES; HT-29; T47D; U-251; HCT-15.
Assay in all cases: growth of human tumour cells (NCI), 48 h

SMILES strings stand for the structures.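 Following 48 hours of exposure in 96-well plates, responses at five concentrations were used to interpolate endpoints linearly. GI50 = concentration required for 50% inhibition of growth.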 Active and inactive are the calls of the source. Rule as the data show it: active = GI50 up to about 1.1 µM and inactive = higher.

In the case of `CN(C)CCCCCNc1c2ccccc2nc2cccc([N+](=O)[O-])c12`, the GI50 in the assay on OVCAR-4 was 0.653 nM (active); in the assay on SK-MEL-2 it was 1.07 nM (active); with M19-MEL it was 5.12 nM (active); with COLO 205, 0.524 nM (active); with MDA-MB-435, 0.2 nM (active); in the assay with SF-539, 3.6 nM (active). Further, the GI50 is 1.86 nM (active) in the assay with SN12C; 0.447 nM (active) with SR; 2.2 nM (active) with IGROV-1; 1.82 nM (active) in the assay on OVCAR-5; 3.42 nM (active) in the assay on DLD-1; 1.46 nM (active) in the assay on M14. Besides, the GI50 in the assay with EKVX is 4.02 nM (active); with NCI-H226, 21.4 nM (active); in the assay with HCC 2998, 3.31 nM (active); in the assay on NCI/ADR-RES, 1.19 nM (active); in the assay with HT-29 it was 1.1 nM (active); with T47D, 9.73 nM (active). Moreover, the GI50 in the assay on U-251 was 1.1 nM (active).

`Cc1ccc(/C=C2\CNC/C(=C\c3ccc(C)cc3)C2=O)cc1`: the GI50 with OVCAR-4 is 2340 nM (inactive); in the assay on SK-MEL-2, 9020 nM (inactive); in the assay with M19-MEL, 1570 nM (inactive); with COLO 205, 2130 nM (inactive); with MDA-MB-435 it was 3030 nM (inactive); in the assay on SF-539 it was 2200 nM (inactive). Also, the GI50 in the assay with SN12C was 2520 nM (inactive); in the assay with SR it was 440 nM (active); in the assay with IGROV-1, 1900 nM (inactive); in the assay with OVCAR-5 it was 3870 nM (inactive); in the assay with DLD-1, 340 nM (active); with M14 it was 2260 nM (inactive). Moreover, the GI50 was 1490 nM in the assay with HCT-15; 3920 nM (inactive) in the assay on EKVX; 1840 nM (inactive) in the assay on NCI-H226; 1670 nM (inactive) with HCC 2998; 617 nM (active) in the assay with HT-29; 2650 nM (inactive) in the assay with T47D. Also, in the assay with U-251, the GI50 was 341 nM (active).

Source of the values: ChEMBL document CHEMBL1201862, “PubChem BioAssay data set” (2004).
